Measured values reported in US20260297060A1, “COMPOUNDS FOR THE DEGRADATION OF MUTANT BRAF” (C4 THERAPEUTICS, INC., priority 2023, published 2026).
Like-named read-outs stand apart in the source and are kept apart here.

Assay: Pharmacokinetics in female BALB/c nude mice bearing A375 xenografts, 1 day dosing (PK and PD study): plasma, tumor and brain concentrations, AUC
Format: in vivo
Text: The concentrations of Dabrafenib, Compound 26 and Compound 141 in the treatment of female BALB/c nude mice bearing A375 xenografts are shown in Table 62-Table 72 and FIG. 52-FIG. 73.

[1] = 0.75 mg/kg p.o. BID × 1 day, post 2nd dose, 48 h, BQL: below the lower limit of quantitation
[2] = 1 mg/kg p.o. TID × 1 day, post 3rd dose, 48 h, BQL: below the lower limit of quantitation
[3] = Compound 141, 1.5 mg/kg p.o. BID × 1 day, post 2nd dose, 36 h, BQL: below the lower limit of quantitation
[4] = Compound 141, 1.5 mg/kg p.o. BID × 1 day, post 2nd dose, 48 h, BQL: below the lower limit of quantitation
[5] = mouse, brain, po, 0.75 mg/kg, 0.75 mg/kg p.o. BID × 1 day, post 2nd dose, read-out: Mean Concentration in Brain ± SEM
[6] = mouse, brain, po, 1 mg/kg, 1 mg/kg p.o. TID × 1 day, post 3rd dose, read-out: Mean Concentration in Brain ± SEM
[7] = mouse, brain, po, 1.5 mg/kg, Compound 141, 1.5 mg/kg p.o. BID × 1 day, post 2nd dose, read-out: Mean Concentration in Brain ± SEM
[8] = mouse, brain, po, 3 mg/kg, 3 mg/kg p.o. QD × 1 day, read-out: Mean Concentration in Brain ± SEM
[9] = mouse, brain, po, 5 mg/kg, 5 mg/kg p.o. BID × 1 day, post 2nd dose, read-out: Mean Concentration in Brain ± SEM
[10] = mouse, plasma, po, 0.75 mg/kg, 0.75 mg/kg p.o. BID × 1 day, post 1st dose, read-out: Mean Concentration in Plasma ± SEM
[11] = mouse, plasma, po, 0.75 mg/kg, 0.75 mg/kg p.o. BID × 1 day, post 2nd dose, read-out: Mean Concentration in Plasma ± SEM
[12] = mouse, plasma, po, 1 mg/kg, 1 mg/kg p.o. TID × 1 day, post 1st dose, read-out: Mean Concentration in Plasma ± SEM
[13] = mouse, plasma, po, 1 mg/kg, 1 mg/kg p.o. TID × 1 day, post 2nd dose, read-out: Mean Concentration in Plasma ± SEM
[14] = mouse, plasma, po, 1 mg/kg, 1 mg/kg p.o. TID × 1 day, post 3rd dose, read-out: Mean Concentration in Plasma ± SEM

SMILES: CCN(C)S(=O)(=O)Nc1ccc(F)c(Oc2ccc3ncn(C4CC5(CCN(C6CC7(C6)CN(c6cc8c(cc6F)c(N6CCC(=O)NC6=O)nn8C)C7)CC5)C4)c(=O)c3c2)c1C#N (stereo not shown) [Compound 141, 6-[2-cyano-3-[[ethyl(methyl)sulfamoyl]amino]-6-fluoro-phenoxy]-3-[7-[2-[3-(2,4-dioxohexahydropyrimidin-1-yl)-5-fluoro-1-methyl-indazol-6-yl]-2-azaspiro[3.3]heptan-6-yl]-7-azaspiro[3.5]nonan-2-yl]-4-oxo-quinazoline]
- Mean Concentration in Brain ± SEM (0.75 mg/kg p.o. BID × 1 day, post 2nd dose, 24 h, BQL: below the lower limit of quantitation): BQL^a
- Mean Concentration in Brain ± SEM [1]: BQL
- Mean Concentration in Tumor ± SEM [1]: BQL
- Mean Concentration in Brain ± SEM (1 mg/kg p.o. TID × 1 day, post 3rd dose, 24 h, BQL: below the lower limit of quantitation): BQL^a
- Mean Concentration in Brain ± SEM [2]: BQL
- Mean Concentration in Plasma ± SEM [2]: BQL
- Mean Concentration in Plasma ± SEM (3 mg/kg p.o. QD × 1 day, 48 h, BQL: below the lower limit of quantitation): BQL^a
- Mean Concentration in Brain ± SEM (5 mg/kg p.o. BID × 1 day, post 2nd dose, 24 h, BQL: below the lower limit of quantitation): BQL^a
- Mean Concentration in Brain ± SEM (Compound 141, 1.5 mg/kg p.o. BID × 1 day, post 2nd dose, 24 h, BQL: below the lower limit of quantitation): BQL^a
- Mean Concentration in Brain ± SEM [3]: BQL
- Mean Concentration in Plasma ± SEM [3]: BQL
- Mean Concentration in Brain ± SEM [4]: BQL
- Mean Concentration in Plasma ± SEM [4]: BQL
- concentration at 1 h [5]: 26.7 ± 2.39 ng/g
- concentration at 4 h [5]: 10.2 ± 1.3 ng/g
- concentration at 10 h [5]: 6.61 ± 2 ng/g
- concentration at 1 h [6]: 22 ± 3.26 ng/g
- concentration at 4 h [6]: 17.9 ± 3.94 ng/g
- concentration at 10 h [6]: 14.6 ± 3.36 ng/g
- concentration at 0.25 h [7]: 11.2 ± 1.24 ng/g
- concentration at 0.5 h [7]: 25.5 ± 2.96 ng/g
- concentration at 1 h [7]: 44.1 ± 5.96 ng/g
- concentration at 2 h [7]: 39.3 ± 0.318 ng/g
- concentration at 4 h [7]: 23.5 ± 4.95 ng/g
- concentration at 10 h [7]: 3.51 ± 1.17 ng/g
- concentration at 1 h [8]: 70.5 ± 4.29 ng/g
- concentration at 4 h [8]: 37.6 ± 9.11 ng/g
- concentration at 10 h [8]: 11 ± 1.97 ng/g
- concentration at 24 h (mouse, brain, po, 3 mg/kg, 3 mg/kg p.o. QD × 1 day, 24 h, read-out: Mean Concentration in Brain ± SEM): 3.31 ng/g
- concentration at 48 h (mouse, brain, po, 3 mg/kg, 3 mg/kg p.o. QD × 1 day, 48 h, read-out: Mean Concentration in Brain ± SEM): 1.79 ng/g
- concentration at 1 h [9]: 126 ± 6.12 ng/g
- concentration at 4 h [9]: 52.9 ± 12.8 ng/g
- concentration at 10 h [9]: 13.1 ± 2.79 ng/g
- concentration at 48 h (mouse, brain, po, 5 mg/kg, 5 mg/kg p.o. BID × 1 day, post 2nd dose, 48 h, read-out: Mean Concentration in Brain ± SEM): 4 ng/g
- concentration at 0.25 h [10]: 340 ± 19 ng/mL
- concentration at 0.5 h [10]: 832 ± 61.1 ng/mL
- concentration at 1 h [10]: 1070 ± 94.7 ng/mL
- concentration at 2 h [10]: 972 ± 13.5 ng/mL
- concentration at 4 h [10]: 491 ± 20.2 ng/mL
- concentration at 8 h [10]: 66.3 ± 5.93 ng/mL
- concentration at 12 h (mouse, plasma, po, 0.75 mg/kg, 0.75 mg/kg p.o. BID × 1 day, post 1st dose, 12 h, read-out: Mean Concentration in Plasma ± SEM): 26.5 ± 4.92 ng/mL
- concentration at 0.25 h [11]: 297 ± 13.2 ng/mL
- concentration at 0.5 h [11]: 502 ± 84.1 ng/mL
- concentration at 1 h [11]: 778 ± 59.4 ng/mL
- concentration at 2 h [11]: 818 ± 118 ng/mL
- concentration at 4 h [11]: 247 ± 24.5 ng/mL
- concentration at 10 h [11]: 111 ± 18.4 ng/mL
- concentration at 24 h (mouse, plasma, po, 0.75 mg/kg, 0.75 mg/kg p.o. BID × 1 day, post 2nd dose, 24 h, read-out: Mean Concentration in Plasma ± SEM): 1.09 ± 0.203 ng/mL
- concentration at 36 h (mouse, plasma, po, 0.75 mg/kg, 0.75 mg/kg p.o. BID × 1 day, post 2nd dose, 36 h, read-out: Mean Concentration in Plasma ± SEM): 0.764 ng/mL
- concentration at 48 h (mouse, plasma, po, 0.75 mg/kg, 0.75 mg/kg p.o. BID × 1 day, post 2nd dose, 48 h, read-out: Mean Concentration in Plasma ± SEM): 4.96 ng/mL
- concentration at 0.25 h [12]: 438 ± 25.4 ng/mL
- concentration at 0.5 h [12]: 836 ± 10.8 ng/mL
- concentration at 1 h [12]: 1130 ± 180 ng/mL
- concentration at 2 h [12]: 1000 ± 55.2 ng/mL
- concentration at 4 h [12]: 699 ± 129 ng/mL
- concentration at 8 h [12]: 242 ± 30.4 ng/mL
- concentration at 0.25 h [13]: 334 ± 54.7 ng/mL
- concentration at 2 h [13]: 879 ± 74.6 ng/mL
- concentration at 8 h [13]: 218 ± 16.3 ng/mL
- concentration at 0.25 h [14]: 346 ± 65.5 ng/mL
- concentration at 0.5 h [14]: 694 ± 54.4 ng/mL
- concentration at 1 h [14]: 664 ± 72 ng/mL
- concentration at 2 h [14]: 1600 ± 124 ng/mL
- concentration at 4 h [14]: 563 ± 173 ng/mL
- concentration at 10 h [14]: 415 ± 74.4 ng/mL
- concentration at 24 h (mouse, plasma, po, 1 mg/kg, 1 mg/kg p.o. TID × 1 day, post 3rd dose, 24 h, read-out: Mean Concentration in Plasma ± SEM): 10.5 ± 5.67 ng/mL
- concentration at 36 h (mouse, plasma, po, 1 mg/kg, 1 mg/kg p.o. TID × 1 day, post 3rd dose, 36 h, read-out: Mean Concentration in Plasma ± SEM): 3.2 ± 0.392 ng/mL
